Drawing on US20160024071A1, “INHIBITORS OF LRRK2 KINASE ACTIVITY” (ELAN PHARMACEUTICALS, LLC., priority 2013, published 2016), this text covers IC50 for twelve compounds.

T1 sequence (Q5S007 whole entry): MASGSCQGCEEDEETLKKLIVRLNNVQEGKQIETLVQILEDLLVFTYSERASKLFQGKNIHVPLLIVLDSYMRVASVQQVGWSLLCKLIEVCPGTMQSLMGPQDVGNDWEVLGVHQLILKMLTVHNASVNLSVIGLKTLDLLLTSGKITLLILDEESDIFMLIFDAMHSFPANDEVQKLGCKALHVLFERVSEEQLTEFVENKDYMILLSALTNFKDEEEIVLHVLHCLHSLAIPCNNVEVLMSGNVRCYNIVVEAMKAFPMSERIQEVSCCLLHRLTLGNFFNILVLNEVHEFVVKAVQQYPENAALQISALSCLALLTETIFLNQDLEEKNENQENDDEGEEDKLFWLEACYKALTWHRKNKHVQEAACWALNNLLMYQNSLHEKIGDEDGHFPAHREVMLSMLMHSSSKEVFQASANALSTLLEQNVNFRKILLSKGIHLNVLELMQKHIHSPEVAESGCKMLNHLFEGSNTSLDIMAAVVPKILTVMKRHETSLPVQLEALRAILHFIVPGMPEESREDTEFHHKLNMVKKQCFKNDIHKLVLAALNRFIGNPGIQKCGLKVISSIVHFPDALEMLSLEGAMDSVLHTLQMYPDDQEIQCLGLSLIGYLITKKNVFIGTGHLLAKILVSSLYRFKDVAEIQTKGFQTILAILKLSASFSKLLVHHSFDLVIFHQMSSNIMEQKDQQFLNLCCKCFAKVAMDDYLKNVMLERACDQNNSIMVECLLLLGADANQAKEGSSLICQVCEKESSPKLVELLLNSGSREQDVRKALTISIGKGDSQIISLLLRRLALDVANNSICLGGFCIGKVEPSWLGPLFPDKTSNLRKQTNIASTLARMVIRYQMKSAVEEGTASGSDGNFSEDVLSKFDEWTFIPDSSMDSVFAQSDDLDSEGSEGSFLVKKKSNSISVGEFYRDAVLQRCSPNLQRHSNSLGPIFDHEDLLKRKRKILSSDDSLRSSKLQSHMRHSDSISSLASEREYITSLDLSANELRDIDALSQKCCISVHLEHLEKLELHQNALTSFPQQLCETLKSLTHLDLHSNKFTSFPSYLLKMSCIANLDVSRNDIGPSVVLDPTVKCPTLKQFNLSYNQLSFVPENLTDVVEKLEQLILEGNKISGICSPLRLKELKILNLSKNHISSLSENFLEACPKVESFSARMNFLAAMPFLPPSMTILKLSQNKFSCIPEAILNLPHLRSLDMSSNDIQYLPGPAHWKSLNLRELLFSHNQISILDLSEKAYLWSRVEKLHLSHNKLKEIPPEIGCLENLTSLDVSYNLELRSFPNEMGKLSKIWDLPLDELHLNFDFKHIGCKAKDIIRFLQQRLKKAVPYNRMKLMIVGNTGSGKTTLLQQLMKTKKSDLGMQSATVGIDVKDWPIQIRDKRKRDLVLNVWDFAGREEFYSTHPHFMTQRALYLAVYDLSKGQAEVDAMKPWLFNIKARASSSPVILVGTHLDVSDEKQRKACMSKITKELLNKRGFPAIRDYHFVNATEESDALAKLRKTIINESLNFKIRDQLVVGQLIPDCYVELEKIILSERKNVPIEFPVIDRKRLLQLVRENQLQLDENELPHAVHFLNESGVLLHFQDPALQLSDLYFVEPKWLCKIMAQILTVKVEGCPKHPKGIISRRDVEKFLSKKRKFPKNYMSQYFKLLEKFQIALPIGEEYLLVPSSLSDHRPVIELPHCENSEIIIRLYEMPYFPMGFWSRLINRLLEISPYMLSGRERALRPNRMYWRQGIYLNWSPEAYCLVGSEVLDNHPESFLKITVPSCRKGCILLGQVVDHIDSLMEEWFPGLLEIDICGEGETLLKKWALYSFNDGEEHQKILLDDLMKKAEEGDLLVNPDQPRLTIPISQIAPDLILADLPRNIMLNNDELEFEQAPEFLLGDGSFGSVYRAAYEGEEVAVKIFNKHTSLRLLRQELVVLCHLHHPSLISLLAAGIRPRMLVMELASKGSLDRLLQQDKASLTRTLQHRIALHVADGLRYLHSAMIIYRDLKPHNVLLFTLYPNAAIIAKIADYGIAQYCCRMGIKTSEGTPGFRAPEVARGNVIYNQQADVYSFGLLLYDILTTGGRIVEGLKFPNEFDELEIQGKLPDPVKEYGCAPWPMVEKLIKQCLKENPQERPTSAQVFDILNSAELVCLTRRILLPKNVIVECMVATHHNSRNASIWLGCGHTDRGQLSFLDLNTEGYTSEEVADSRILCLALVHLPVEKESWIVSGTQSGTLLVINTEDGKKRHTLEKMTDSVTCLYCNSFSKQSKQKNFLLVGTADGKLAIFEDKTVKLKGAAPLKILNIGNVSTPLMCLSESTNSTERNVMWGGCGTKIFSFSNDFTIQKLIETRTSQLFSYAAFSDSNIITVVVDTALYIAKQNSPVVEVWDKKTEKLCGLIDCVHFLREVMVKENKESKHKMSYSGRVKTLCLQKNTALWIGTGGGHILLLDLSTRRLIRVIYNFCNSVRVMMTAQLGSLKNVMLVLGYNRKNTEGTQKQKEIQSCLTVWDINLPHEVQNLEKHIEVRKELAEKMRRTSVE

This assay concerns the target T1, recombinant GST-LRRK2 (wild-type) (Homo sapiens, UniProt Q5S007).
T1 construct: GST (N); purchased Invitrogen
The assay can be described thus: LRRK2 TR-FRET peptide assay (wild-type). The format is biochemical. As to conditions: 100 μM ATP, 100 nM biotin-LRRKtide, 10 nM kinase, 60 min room temperature. The protocol: Compounds as described herein (compounds of Formula I, e.g., compounds of the above Examples) are tested for their in vitro kinase activities using various LRRK2 (including LRRK2 G2019S mutant) assays. For example, assays were performed in a total volume of 20 μL using the same kinase reaction buffer (50 mM HEPES pH 7.5, 10 mM MgCl2, 1 mM EGTA, 2 mM DTT and 0.01% Tween-20) for wild-type or G2019S mutant LRRK2. Serially diluted compounds (1% DMSO as co-solvent) were pre-incubated with recombinant GST-LRRK2 (wild-type, or G2019S mutant, Invitrogen) for 15 minutes at room temperature in 384-well Corning black plates. Mixtures of ATP and biotin-LRRKtide substrate (biotin-RLGRDKYKTLRQIRQ) were added to the wells at a final concentration of 100 μM ATP and 100 nM substrate, with final kinase concentration of 10 nM. The kinase reactions were carried out at room temperature for 60 minutes, then the reaction was stopped with the addition of 10 μL/well of stop/detection buffer (25 mM HEPES pH 7.5, 66 mM EDTA, 0.8 M KF and 0.1% BSA) that contains streptavidin-XL665 (12.5 nM) and europium-conjugated phospho-specific antibody (2 nM). The plates were read 1 hour later and the time-resolved fluorescence (665 nm to 615 nm ratio) measured using an Envision reader. The inhibition of each well was calculated using the control and background readings for that plate. IC50 values were determined from dose-response curves using eight concentrations from the serial dilution of the test compounds.
On the technique in general: In TR-FRET formats the signal depends on donor and acceptor labels being close together.
With `CC1SC(=NNC(=O)c2ccc(Cl)s2)N(c2ccccc2)C1=O` (stereo not drawn) [Compound 1-7, 5-chloro-N′-(5-methyl-4-oxo-3-phenylthiazolidin-2-ylidene)thiophene-2-carbohydrazide], the IC50 stood at 11 nM. To `O=C(NN=C1SCCN1c1ccccc1)c1ccc(Cl)s1` [Compound 2-19, 5-chloro-N′-(3-phenylthiazolidin-2-ylidene)thiophene-2-carbohydrazide] belongs 51 nM; to `O=C(NN=C1SCC(=O)N1c1cccc(F)c1)c1ccc(Cl)s1` [Compound 1-8, 5-chloro-N′-(3-(3-fluorophenyl)-4-oxothiazolidin-2-ylidene)thiophene-2-carbohydrazide], 1.1 nM; to `CC1(C)SC(=NNC(=O)c2ccc(Cl)s2)N(c2ccccc2)C1=O` [Compound 1-14, 5-chloro-N′-(5,5-dimethyl-4-oxo-3-phenylthiazolidin-2-ylidene)thiophene-2-carbohydrazide], 330 nM. Consider `O=C(NN=C1SCC(=O)N1c1ccc(F)cc1)c1ccc(Cl)s1` [Compound 1-11, 5-chloro-N′-(3-(4-fluorophenyl)-4-oxothiazolidin-2-ylidene)thiophene-2-carbohydrazide], for which the IC50 came to 0.9 nM. In the case of `O=C(NN=C1SCC(=O)N1c1ccccc1F)c1ccc(Cl)s1` [Compound 1-10, 5-chloro-N′-(3-(2-fluorophenyl)-4-oxothiazolidin-2-ylidene)thiophene-2-carbohydrazide] it was 0.5 nM. With `O=C(NN=C1SCC(=O)N1c1ccc(F)cc1F)c1ccc(Cl)s1` [Compound 1-12, 5-chloro-N′-(3-(2,4-difluorophenyl)-4-oxothiazolidin-2-ylidene)thiophene-2-carbohydrazide], the 50% inhibitory concentration (IC50) stood at 0.5 nM.

As to `O=C(NN=C1SCC(=O)N1c1cccc(C(F)(F)F)c1)c1ccc(Cl)s1` [Compound 1-16, 5-chloro-N′-(4-oxo-3-(3-(trifluoromethyl)phenyl)thiazolidin-2-ylidene)thiophene-2-carbohydrazide], the IC50 worked out at 111 nM. To `CC(C)C1SC(=NNC(=O)c2ccc(Cl)s2)N(c2ccccc2)C1=O` (stereo not drawn) [Compound 1-13, 5-chloro-N′-(5-isopropyl-4-oxo-3-phenylthiazolidin-2-ylidene)thiophene-2-carbohydrazide] belongs 210 nM; to `O=C(NN=C1SCC(=O)N1c1ccccc1)c1ccc(Cl)s1` [Compound 1-6, 5-chloro-N′-(4-oxo-3-phenylthiazolidin-2-ylidene)thiophene-2-carbohydrazide], 0.9 nM; to `COc1ccccc1N1C(=O)CSC1=NNC(=O)c1ccc(Cl)s1` [Compound 1-9, 5-chloro-N′-(3-(2-methoxyphenyl)-4-oxothiazolidin-2-ylidene)thiophene-2-carbohydrazide], 1170 nM.

For `O=C(NN=C1SCC(=O)N1Cc1ccccc1)c1ccc(Cl)s1` [Compound 1-15, N′-(3-benzyl-4-oxothiazolidin-2-ylidene)-5-chlorothiophene-2-carbohydrazide], the IC50 is 13 nM.

A word on the IC50: it is the concentration needed to halve the response being measured.
